Read-outs that look alike come from different tables or passages of the source.
What was measured:
Assay type in all cases: cell-based
[1] = test system: 4 cell lines (A375, MDA-MB-231, PC-3, SK-OV-3); assay: Growth inhibition with DFMO, average over 4 cell lines; conditions: with DFMO
Experimental: Cells were plated in 96-well plates such that they would be in log growth for the duration of the assay. The day after plating, PAs were added to the cells, and growth, if any, permitted to continue for six days in the presence of 1 mM AG and 0.5 μM SPD to insure that any growth inhibition was not the result of depletion of external polyamines in the media. At the end of the six days, cell growth was measured by MTS/PMS dye assay (Cell Titer 96 Aqueous Non-Radioactive Cell Proliferation Assay; Promega, Madison, Wis.).

PC-3 = assay: Growth inhibition assay, PA alone, PC-3; conditions: Homo sapiens, PC-3, 144 h, PA alone (no DFMO), six days; repeat determinations; read-out: Cell Line IC50 PC-3
Experimental: (§1) Medias were obtained from Mediatech, Inc. (Herdon, Va.) and serums from Gibco BRL (Gaithersburg, Md.). 50 U/ml penicillin, 50 μg/ml streptomycin and 2 mM L-glutamine (all from Bio Whittaker, Walkersville, Md.) were included in all cultures. […] When cells were cultured with polyamines or ORI compounds, 1 mM aminoguanidine (AG; Sigma) was included to inhibit serum amine oxidase activity.

A375 = assay: Growth inhibition assay, PA alone, A375; conditions: PA alone (no DFMO), six days, repeat determinations, read-out: Cell Line IC50 A375
Experimental: as §1

MDA-MB-231 = assay: Growth inhibition assay, PA alone, MDA-MB-231; conditions: PA alone (no DFMO), six days, repeat determinations, read-out: Cell Line IC50 MDA-MB-231
Experimental: as §1

SK-OV-3 = assay: Growth inhibition assay, PA alone, SK-OV-3; conditions: Homo sapiens, SK-OV-3, 144 h, PA alone (no DFMO), six days; repeat determinations; read-out: Cell Line IC50 SK-OV-3
Experimental: as §1

[2] = Table 3, average over cell lines, read-out: AVG. EC50
[3] = Homo sapiens, MDA-MB-231, 144 h
[4] = Table 1, average EC50 for 4 cell lines, read-out: Ave EC50 value

Row | SMILES | EC50 [1, 2] [µM] | IC50 (PC-3) [µM] | IC50 (A375; Homo sapiens, A-375, 144 h) [µM] | IC50 (MDA-MB-231; [3]) [µM] | IC50 (SK-OV-3) [µM] | EC50 [1, 4] [µM] | IC50 (MDA-MB-231) [µM] | IC50 (A375) [µM]
1 | CCCCCCCCCCCCCCCCCC(=O)NCCCC[C@@H](N)C(=O)NCCCNCCCCNCCCN [IB2] | 0.083 | > 3 | > 3 | > 3 | > 3 | – | – | –
2 | CCCCCCCC(=O)NCCCC[C@@H](N)C(=O)NCCCNCCCCNCCCN [IB7] | 11.2 | > 30 | > 30 | > 30 | > 30 | – | – | –
3 | CCCCCCC(=O)NCCCC[C@@H](N)C(=O)NCCCNCCCCNCCCN [IB8] | 3.55 | > 100 | > 100 | > 100 | > 100 | – | – | –
4 | CCCCCC(=O)NCCCC[C@@H](N)C(=O)NCCCNCCCCNCCCN [IB9] | 11.5 | > 100 | > 100 | > 100 | > 100 | – | – | –
5 | CCCC(=O)NCCC[C@@H](N)C(=O)NCCCNCCCCNCCCN [IB10] | 11.7 | > 100 | > 100 | > 100 | > 100 | 12 | – | –
6 | NCCCNCCCCNCCCNC(=O)[C@H](N)CCCCNC(=O)c1ccccc1 [IB24] | > 30 | > 30 | > 30 | > 30 | > 30 | – | – | –
7 | NCCCNCCCCNCCCNC(=O)[C@H](N)CCCCNC(=O)c1ccco1 [IB25] | – | > 30 | > 30 | – | > 30 | – | – | –
8 | NCCCNCCCCNCCCNC(=O)[C@H](N)CCCCNC(=O)c1ccc(-c2ccccc2)cc1 [IB26] | 0.955 | > 100 | – | > 100 | > 100 | – | – | –
9 | NCCCNCCCCNCCCNC(=O)[C@H](N)CCCCNC(=O)C(c1ccccc1)c1ccccc1 [IB29] | – | > 100 | – | > 100 | > 70 | – | – | –
10 | NCCCNCCCCNCCCNC(=O)[C@H](N)CCCCNC(=O)C12CC3CC(CC(C3)C1)C2 [IB30] | 1.24 | – | – | > 100 | – | – | 84.4 | –
11 | NCCCNCCCCNCCCNC(=O)[C@H](N)CCCNC(=O)C1CCCCC1 [IB32] | – | > 100 | > 100 | > 100 | > 100 | 3.6 | – | –
12 | CC(C)C(=O)NCCCC[C@@H](N)C(=O)NCCCNCCCCNCCCN [IB33] | 8.58 | > 100 | > 100 | > 100 | > 100 | – | – | –
13 | CC(C)(C)C(=O)NCCCC[C@@H](N)C(=O)NCCCNCCCCNCCCN [IB34] | 8.29 | > 100 | > 100 | > 100 | > 100 | – | – | –

Further lines, results first:

Row | EC50 [1, 2] [µM] | IC50 (PC-3) [µM] | IC50 (A375; Homo sapiens, A-375, 144 h) [µM] | IC50 (MDA-MB-231; [3]) [µM] | IC50 (SK-OV-3) [µM] | EC50 [1, 4] [µM] | IC50 (MDA-MB-231) [µM] | IC50 (A375) [µM] | SMILES
14 | 1.3 | > 100 | – | – | – | – | – | – | CC(C)CC(C)NCCCCC(N)C(=O)NCCCNCCCCNCCCN (single isomer, unassigned) [VA21]
15 | 26.9 | > 100 | > 100 | > 100 | > 100 | – | – | – | CC(C)(C)CC(=O)NCCCC[C@@H](N)C(=O)NCCCNCCCCNCCCN [IB36]
16 | 35.1 | > 100 | 19.8 | > 100 | 18.3 | – | – | – | NCCCNCCCCNCCCNC(=O)[C@H](N)CCCCNC(=O)CC1CC2CCC1C2 (some centres unmarked) [IB37]
17 | 3.14 | – | > 100 | > 100 | > 100 | – | – | 84.4 | CC(C)(C)CNCCCC[C@@H](N)C(=O)NCCCNCCCCNCCCN [IVB24]
18 | 0.939 | > 100 | – | > 100 | – | – | 61 | – | NCCCNCCCCNCCCNC(=O)[C@H](N)CCCCNCC1CC2C=CC1C2 (some centres unmarked) [IVB25]
19 | 0.414 | > 100 | – | > 100 | – | – | – | – | NCCCNCCCCNCCCNC(=O)[C@H](N)CCCCNCC1CCCCC1 [IVB27]
20 | – | > 100 | – | > 100 | 72.9 | – | – | – | NCCCNCCCCNCCCNC(=O)[C@H](N)CCCCNCc1ccc(-c2ccccc2)cc1 [IVB33]

Source: patent USRE43327E1, “Hydrophobic polyamine analogs and methods for their use” (Aminex Therapeutics, Inc., priority 2001, dated 2012)
